Data from US7408024B2, “Somatostatin antagonists” (The Administrators of the Tulane Educational Fund, priority 2001, dated 2008).
Where a SMILES comes first, the peptide text is derived from it. Bridges are numbered along the chain shown (N, C = ends). [ ]: non-standard residue; d: D form. Phe(4-Cl) = N[C@@H](Cc1ccc(Cl)cc1)C(=O)O; dNMeW = CN[C@H](Cc1c[nH]c2ccccc12)C(=O)O; Dip = N[C@H](C(=O)O)C(c1ccccc1)c1ccccc1; 2Nal = N[C@@H](Cc1ccc2ccccc2c1)C(=O)O; NMeT = CN[C@H](C(=O)O)[C@@H](C)O; 3Pal = N[C@@H](Cc1cccnc1)C(=O)O; NMeK = CN[C@@H](CCCCN)C(=O)O; NMeC = CN[C@@H](CS)C(=O)O; dNMeC = CN[C@H](CS)C(=O)O

Legend:
[1] = target: T1, hsst1 (Homo sapiens, UniProt P30872); experiment: Radioligand binding, cloned human sst1 receptor (CHO-K1 membranes); conditions: [125I]Tyr11-SRIF, CHO-K1 cell membranes; single values = one binding experiment; read-out: K1 ± SEM hsst1
T1 construct: each containing the entire coding region of the full-length receptors; expressed in transfected cells
Text: (§1) The genomic clones containing the human somatostatin receptors (hsstr1-5) (Yamada, Y., et al. al., Proc. Natl. Acad. Sci. USA. 1992, 89, 251-255; Yasuda, K., et al., J. Biol. Chem. 1992, 267, 20422-20428; Yamada, Y., et al., Mol. Pharmacol. 1992, 42, 2136-2142; Rohrer, L., et al., Proc. Natl. Acad. Sci. USA. 1993, 90, 4196-4200.), were kindly provided by Dr. Graeme I. Bell (University of Chicago). The hsstr1, hsstr2, hsstr3, hsstr4 and hsstr5 cDNAs were isolated as a 1.5-kb PstI-XmnI fragment, 1.7-kb BamHI-HindIII fragment, 2.0-kb NcoI-HindIII fragment, 1.4-kb NheI-NdeI fragment, and a 1.2-kb HindIII-XbaI fragment, respectively, each containing the entire coding region of the full-length receptors. These fragments were independently subdloned into the corresponding restriction endonuclease sites in the mammalian expression vector pCMV5, downstream from the human cytomegalovirus (CMV) promoter, to produce the expression plasmids pCMV5/hsstr1, pCMV5/hsstr2, pCMV5/hsstr3, pCMV5/hsstr4 and pCMV5/hsstr5. For transfection into CHO-K1 cells, a plasmid, pRSV-neo (American Type Culture Collection, Rockville, Md.), carrying the neomycin mammalian cell selectable marker was added.
(§2) Transfections were performed by the calcium phosphate method. CHO-K1 cells are maintained in α-minimum essential medium (α-MEM; Gibco) supplemented with 10% fetal calf serum and transfected with each of the expression plasmids using calcium phosphate precipitation. Clones that had inherited the expression plasmid were selected in α-MEM supplemented with 500 μg mL^−1 of geneticin (G418; Gibco). Independent CHO-K1 clones were picked by glass-ring cloning and expanded in culture in the selective media. Membranes were prepared from the isolated clones and hsstr expression was initially assessed for binding with [^125I]Tyr^11-SRIF and [^125]IMK-678 (for sstr2).
(§3) Cell membranes of the 5 receptor types were obtained from homogenates (Polytron setting 6, 15 sec) of the corresponding CHO-K1 cells, in ice-cold Tris-HCl (50 mM) and centrifuged (39000 g, 10 min×2), with an intermediate resuspension in fresh buffer. The final pellets are resuspended in Tris-HCl (10 mM) for assay. Aliquots of the membranes are incubated (30 min at 37° C.) with 0.05 nM [^125I]Tyr^11-SRIF (types 1,3,4,5) or [^125I]MK-678 (type 2) in 50 mM HEPES (pH 7.4) containing BSA (10 mg mL^−1); MgCl2 (5 mM), Trasylol (200 kIU mL^−1), bacitracin (0.02 mg mL^−1), and phenylmethanesulfonyl fluoride (0.02 mg mL^−1). The final assay volume is 0.3 mL and incubations are terminated by rapid filtration through GF/C filters pre-soaked in 0.3% poly(ethylenimine) using a Brandel rapid filtration module. Each tube and filter is then washed with aliquots of cold buffer (3×5 mL).
(§4) Specific binding is. defined as the total radioligand bound minus that bound in the presence of 1.0 μM SRIF.

[2] = target: T2, hsst2 (Homo sapiens, UniProt P30874); experiment: Radioligand binding, cloned human sst2 receptor (CHO-K1 membranes); conditions: [125I]MK-678, CHO-K1 cell membranes; single values = one binding experiment; read-out: K1 ± SEM hsst2
T2 construct: each containing the entire coding region of the full-length receptors; expressed in transfected cells
Text: as §1, §2, §3, §4

[3] = target: T3, hsst3 (Homo sapiens, UniProt P32745); experiment: Radioligand binding, cloned human sst3 receptor (CHO-K1 membranes); conditions: [125I]Tyr11-SRIF, CHO-K1 cell membranes; single values = one binding experiment; read-out: K1 ± SEM hsst3
T3 construct: each containing the entire coding region of the full-length receptors; expressed in transfected cells
Text: as §1, §2, §3, §4

[4] = target: T4, hsst4 (Homo sapiens, UniProt P31391); experiment: Radioligand binding, cloned human sst4 receptor (CHO-K1 membranes); conditions: [125I]Tyr11-SRIF, CHO-K1 cell membranes; single values = one binding experiment; read-out: K1 ± SEM hsst4
T4 construct: each containing the entire coding region of the full-length receptors; expressed in transfected cells
Text: as §1, §2, §3, §4

[5] = target: T5, hsst5 (Homo sapiens, UniProt P35346); experiment: Radioligand binding, cloned human sst5 receptor (CHO-K1 membranes); conditions: [125I]Tyr11-SRIF, CHO-K1 cell membranes; single values = one binding experiment; read-out: K1 ± SEM hsst5
T5 construct: each containing the entire coding region of the full-length receptors; expressed in transfected cells
Text: as §1, §2, §3, §4

[6] = test system: SRIF inhibition of GH release in rat anterior pituitary cells; format: cell-based
Procedure: Anterior pituitaries from adult male rats were collected and dispersed by a previously described trypsin/DNase method. (Murphy, W. A.; Taylor, J.; Moreau, J.-P. and Coy, D. […] Sigma) and nystatin (10,000 U mL^−1; Gibco). The cells were randomly plated at a density of approximately 200,000 cells/well (Costar cluster 24; Rochester Scientific Co., Rochester, N.Y.). The plated cells were maintained in the above Dulbecco's medium in a humidified atmosphere of 95% air/5% CO2 at 37° C. for 4-6 days. In preparation for a hormone challenge, the cells were washed with medium 199 (Gibco, 3×1 mL). […] Sigma Chemical Co.). […] After 3 h incubation in an air/carbon dioxide atmosphere (95/5%, 3 h at 37° C.), the medium was removed and stored at −20° C. until assayed for hormone content. Growth hormone in media was measured by a standard double antibody RIA using components generously supplied by Dr. A. F. Parlow at the National Hormone and Pituitary Program (NHHP) Torrance, Calif.

T5 sequence (P35346 whole entry): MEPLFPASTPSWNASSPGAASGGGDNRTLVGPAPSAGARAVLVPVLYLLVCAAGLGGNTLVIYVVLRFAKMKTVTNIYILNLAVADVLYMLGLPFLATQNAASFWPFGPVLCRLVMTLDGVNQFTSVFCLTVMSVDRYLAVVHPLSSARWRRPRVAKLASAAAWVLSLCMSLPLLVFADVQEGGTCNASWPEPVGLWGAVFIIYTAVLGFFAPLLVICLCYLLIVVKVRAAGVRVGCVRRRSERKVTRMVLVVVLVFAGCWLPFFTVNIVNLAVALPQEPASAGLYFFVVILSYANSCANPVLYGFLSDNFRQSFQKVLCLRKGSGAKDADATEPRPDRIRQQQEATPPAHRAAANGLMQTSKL
T2 sequence (P30874 whole entry): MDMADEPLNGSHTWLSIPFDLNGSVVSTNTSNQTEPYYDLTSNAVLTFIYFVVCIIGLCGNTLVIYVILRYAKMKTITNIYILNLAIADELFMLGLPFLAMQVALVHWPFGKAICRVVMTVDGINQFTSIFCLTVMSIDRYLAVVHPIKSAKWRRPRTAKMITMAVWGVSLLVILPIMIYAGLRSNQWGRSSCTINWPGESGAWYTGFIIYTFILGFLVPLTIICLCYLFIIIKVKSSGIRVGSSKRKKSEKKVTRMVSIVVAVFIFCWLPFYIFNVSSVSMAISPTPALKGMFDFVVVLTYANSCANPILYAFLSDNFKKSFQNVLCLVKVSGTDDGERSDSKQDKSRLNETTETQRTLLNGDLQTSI
T4 sequence (P31391 whole entry): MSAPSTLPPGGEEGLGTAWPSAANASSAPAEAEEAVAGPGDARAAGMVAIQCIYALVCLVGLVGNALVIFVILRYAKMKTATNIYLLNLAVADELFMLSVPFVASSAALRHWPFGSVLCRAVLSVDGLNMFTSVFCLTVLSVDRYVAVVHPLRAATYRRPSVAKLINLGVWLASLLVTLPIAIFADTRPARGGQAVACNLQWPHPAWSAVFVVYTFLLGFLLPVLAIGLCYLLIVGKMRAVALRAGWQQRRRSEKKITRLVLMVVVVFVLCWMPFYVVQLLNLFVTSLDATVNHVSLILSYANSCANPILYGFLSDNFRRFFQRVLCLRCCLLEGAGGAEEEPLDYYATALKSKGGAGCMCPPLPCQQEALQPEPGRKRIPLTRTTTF
T1 sequence (P30872 whole entry): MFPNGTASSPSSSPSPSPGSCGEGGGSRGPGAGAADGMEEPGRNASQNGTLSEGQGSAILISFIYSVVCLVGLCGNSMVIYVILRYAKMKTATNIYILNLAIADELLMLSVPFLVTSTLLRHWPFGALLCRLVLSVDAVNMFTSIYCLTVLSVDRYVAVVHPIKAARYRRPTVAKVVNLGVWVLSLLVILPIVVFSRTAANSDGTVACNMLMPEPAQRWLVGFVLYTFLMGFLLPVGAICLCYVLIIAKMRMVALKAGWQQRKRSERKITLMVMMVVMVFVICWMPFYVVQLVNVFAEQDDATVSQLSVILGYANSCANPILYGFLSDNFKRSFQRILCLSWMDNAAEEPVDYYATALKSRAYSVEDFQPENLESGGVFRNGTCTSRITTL
T3 sequence (P32745 whole entry): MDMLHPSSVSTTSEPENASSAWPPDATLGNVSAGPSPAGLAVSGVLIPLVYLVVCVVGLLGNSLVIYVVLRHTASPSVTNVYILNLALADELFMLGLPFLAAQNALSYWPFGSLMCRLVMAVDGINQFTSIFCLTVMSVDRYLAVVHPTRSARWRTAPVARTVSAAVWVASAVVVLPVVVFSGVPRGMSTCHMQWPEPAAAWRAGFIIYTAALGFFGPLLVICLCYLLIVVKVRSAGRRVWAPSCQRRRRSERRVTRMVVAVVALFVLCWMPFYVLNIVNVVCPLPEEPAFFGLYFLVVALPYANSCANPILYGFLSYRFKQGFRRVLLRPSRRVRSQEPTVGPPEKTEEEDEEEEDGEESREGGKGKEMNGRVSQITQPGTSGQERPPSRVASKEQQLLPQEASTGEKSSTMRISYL

Row | Ki [1] [nM] | Ki [2] [nM] | Ki [3] [nM] | Ki [4] [nM] | Ki [5] [nM] | IC50 [6] [nM] | SMILES
1 | 395 ± 202 | 1000 | 315 ± 12.5 | 1000 | – | – | C[C@@H](O)[C@H]1C(=O)N[C@H](C(=O)N[C@@H](Cc2ccc3ccccc3c2)C(N)=O)CSSC[C@@H](NC(=O)[C@@H](N)Cc2ccc(Cl)cc2)C(=O)N[C@@H](Cc2cccnc2)C(=O)N[C@H](Cc2c[nH]c3ccccc23)C(=O)N[C@@H](CCCCN)C(=O)N1C [Peptide 6, Cpa-cyclo(DCys-3-Pal-DTrp-Lys-NMeThr-Cys)-2-Nal-NH2] (H-[Phe(4-Cl)][dC][3Pal][dW]K[NMeT]C[2Nal]-NH2; disulfide 2-7)
2 | – | 810 | 68.7 ± 4.7 | 575 | – | – | C[C@@H](O)[C@@H]1NC(=O)[C@H](CCCCN)NC(=O)[C@@H](Cc2c[nH]c3ccccc23)NC(=O)[C@H](Cc2cccnc2)NC(=O)[C@H](NC(=O)[C@@H](N)Cc2ccc(Cl)cc2)CSSC[C@@H](C(=O)N[C@@H](Cc2ccc3ccccc3c2)C(N)=O)N(C)C1=O [Peptide 7, Cpa-cyclo(DCys-3-Pal-DTrp-Lys-Thr-NmeCys)-2-Nal-NH2] (H-[Phe(4-Cl)][dC][3Pal][dW]KT[NMeC][2Nal]-NH2; disulfide 2-7)
3 | 1000 | 27.3 ± 1.45 | – | 1000 | 176 ± 65.1 | – | C[C@@H](O)[C@@H]1NC(=O)[C@H](CCCCN)N(C)C(=O)[C@@H](Cc2c[nH]c3ccccc23)NC(=O)[C@H](Cc2cccnc2)NC(=O)[C@H](NC(=O)[C@@H](N)Cc2ccc3ccccc3c2)CSSC[C@@H](C(=O)N[C@H](Cc2c[nH]c3ccccc23)C(N)=O)NC1=O [Peptide 15, Nal-cyclo(DCys-3-Pal-DTrp-NMeLys-Thr-Cys)-DTrp-NH2] (H-[2Nal][dC][3Pal][dW][NMeK]TC[dW]-NH2; disulfide 2-7)
4 | 1000 | 5.51 ± 1.85 | 115 ± 16.9 | 1000 | – | 0.53 ± 0.17 | C[C@@H](O)[C@@H]1NC(=O)[C@H](CCCCN)N(C)C(=O)[C@@H](Cc2c[nH]c3ccccc23)NC(=O)[C@H](Cc2ccc(O)cc2)NC(=O)[C@H](NC(=O)[C@@H](N)Cc2ccc(Cl)cc2)CSSC[C@@H](C(=O)N[C@@H](Cc2ccc3ccccc3c2)C(N)=O)NC1=O [Peptide 12, Cpa-cyclo(DCys-Tyr-DTrp-NMeLys-Thr-Cys)-2-Nal-NH2] (H-[Phe(4-Cl)][dC]Y[dW][NMeK]TC[2Nal]-NH2; disulfide 2-7)
5 | – | 51.8 ± 2.6 | 390 ± 114 | – | 93 ± 17.7 | – | C[C@@H](O)[C@@H]1NC(=O)[C@H](CCCCN)NC(=O)[C@@H](Cc2c[nH]c3ccccc23)N(C)C(=O)[C@H](Cc2cccnc2)NC(=O)[C@H](NC(=O)[C@@H](N)Cc2ccc(Cl)cc2)CSSC[C@@H](C(=O)N[C@@H](Cc2ccc3ccccc3c2)C(N)=O)NC1=O [Peptide 4, Cpa-cyclo(DCys-3-Pal-NMeDTrp-Lys-Thr-Cys)-2-Nal-NH2] (H-[Phe(4-Cl)][dC][3Pal][dNMeW]KTC[2Nal]-NH2; disulfide 2-7)
6 | – | 17.1 ± 5.5 | 66 ± 5.8 | – | 5.98 ± 0.91 | – | C[C@@H](O)[C@@H]1NC(=O)[C@H](CCCCN)N(C)C(=O)[C@@H](Cc2c[nH]c3ccccc23)NC(=O)[C@H](Cc2cccnc2)NC(=O)[C@H](NC(=O)[C@@H](N)Cc2ccc(Cl)cc2)CSSC[C@@H](C(=O)N[C@@H](Cc2ccc3ccccc3c2)C(N)=O)NC1=O [Peptide 5, Cpa-cyclo(DCys-3-Pal-DTrp-NMeLys-Thr-Cys)-2-Nal-NH2] (H-[Phe(4-Cl)][dC][3Pal][dW][NMeK]TC[2Nal]-NH2; disulfide 2-7)
7 | – | 12.1 ± 1.9 | 38.2 ± 2.4 | 1000 | – | – | C[C@@H](O)[C@@H]1NC(=O)[C@H](CCCCN)NC(=O)[C@@H](Cc2c[nH]c3ccccc23)NC(=O)[C@H](Cc2cccnc2)NC(=O)[C@H](NC(=O)[C@@H](N)Cc2ccc(Cl)cc2)CSSC[C@@H](C(=O)N[C@@H](Cc2ccc3ccccc3c2)C(N)=O)NC1=O [Peptide 9, Cpa-cyclo(DCys-3-Pal-DTrp-Lys-Thr-Cys)-Nal-NH2]
8 | – | 24.7 ± 1.61 | 537 ± 44.8 | – | 313 ± 4.1 | – | C[C@@H](O)[C@@H]1NC(=O)[C@H](CCCCN)N(C)C(=O)[C@@H](Cc2c[nH]c3ccccc23)NC(=O)[C@H](Cc2cccnc2)NC(=O)[C@H](NC(=O)[C@@H](N)Cc2cccnc2)CSSC[C@@H](C(=O)N[C@H](Cc2c[nH]c3ccccc23)C(N)=O)NC1=O [Peptide 16, 3-Pal-cyclo(DCys-3-Pal-DTrp-NMeLys-Thr-Cys)-DTrp-NH2] (H-[3Pal][dC][3Pal][dW][NMeK]TC[dW]-NH2; disulfide 2-7)
9 | 1000 | 89 ± 8 | 576 ± 47 | 1000 | 106 ± 36 | – | CNC(=O)[C@H](Cc1ccc2ccccc2c1)NC(=O)[C@@H]1CSSC[C@@H](N(C)C(=O)[C@@H](N)Cc2ccc(Cl)cc2)C(=O)N[C@@H](Cc2cccnc2)C(=O)N[C@H](Cc2c[nH]c3ccccc23)C(=O)N[C@@H](CCCCN)C(=O)N[C@@H]([C@@H](C)O)C(=O)N1 [Peptide 2, Cpa-cyclo(NmeDCys-3-Pal-DTrp-Lys-Thr-Cys)-2-Nal-NHMe] (H-[Phe(4-Cl)][dNMeC][3Pal][dW]KTC[2Nal]-NHMe; disulfide 2-7)
10 | – | 5.45 ± 0.3 | 91.4 ± 11.9 | – | – | – | C[C@@H](O)[C@@H]1NC(=O)[C@H](CCCCN)N(C)C(=O)[C@@H](Cc2c[nH]c3ccccc23)NC(=O)[C@H](Cc2cccnc2)NC(=O)[C@H](NC(=O)[C@@H](N)Cc2ccc(Cl)cc2)CSSC[C@@H](C(=O)N[C@H](Cc2c[nH]c3ccccc23)C(N)=O)NC1=O [Peptide 14, Cpa-cyclo(DCys-3-Pal-DTrp-NMeLys-Thr-Cys)-DTrp-NH2] (H-[Phe(4-Cl)][dC][3Pal][dW][NMeK]TC[dW]-NH2; disulfide 2-7)
11 | – | 189 ± 35 | 450 ± 132 | – | – | – | C[C@@H](O)[C@@H]1NC(=O)[C@H](CCCCN)NC(=O)[C@@H](Cc2c[nH]c3ccccc23)NC(=O)[C@H](Cc2cccnc2)N(C)C(=O)[C@H](NC(=O)[C@@H](N)Cc2ccc(Cl)cc2)CSSC[C@@H](C(=O)N[C@@H](Cc2ccc3ccccc3c2)C(N)=O)NC1=O [Peptide 3, Cpa-cyclo(DCys-Nme3-Pal-DTrp-Lys-Thr-Cys)-2-Nal-NH2]
12 | 1000 | 117 ± 24.6 | 584 ± 305 | 1000 | 766 ± 110 | – | CNC(=O)[C@@H](NC(=O)[C@@H]1CSSC[C@@H](N(C)C(=O)[C@@H](N)Cc2ccc(Cl)cc2)C(=O)N[C@@H](Cc2cccnc2)C(=O)N[C@H](Cc2c[nH]c3ccccc23)C(=O)N[C@@H](CCCCN)C(=O)N[C@@H]([C@@H](C)O)C(=O)N1)C(c1ccccc1)c1ccccc1 [Peptide 10, Cpa-cyclo(NMeDCys-3-Pal-DTrp-Lys-Thr-Cys)-Dip-NHMe] (H-[Phe(4-Cl)][dNMeC][3Pal][dW]KTC[Dip]-NHMe; disulfide 2-7)
